The subject of one series is Gram+ bacteriae. The settings on record: infectious diseases caused by Gram+ bacteriae; cited from earlier work.
For series [1] the following is noted: cited from earlier work.
Series [2] relates to Streptococcus faecalis CIP 53.152. Briefly: MIC vis-a-vis several strains (Table V). Format: cell-based. The settings on record: Enterococcus faecalis, CIP53. The text has this:
(§1) A certain number of compounds according to the invention are given non-restrictively by way of illustration in tables I, II and III hereinafter. The minimal inhibiting concentrations (MIC) of these compounds vis-a-vis a Gram+bacteria (Staphylococcus aureus London) a Gram-bacteria (Escherichia coli) and a fungus (Candida albicans) are given hereinafter in table IV. In table V are tabulated the MIC values of two compounds according to the invention which are particularly interesting [compound B 673 (example 26) and compound B 674 (example 29)] vis-a-vis several strains.
(§2) The strains used are those of the catalogues of the "Institut Pasteur" of Paris (abbreviation: CIP), the "Centre International de Distribution de Souches et d'Information sur les Types Microbiens de Lausanne" (abbreviation: La) and the "American Type Culture Collection" (abbreviation: ATCC).

In series [3] the test system is Listeria monocytogenes CIP 54153. Briefly: MIC vis-a-vis several strains (Table V). Format: cell-based. Conditions: CIP54153.
Excerpt: as §1, §2

The subject of series [4] is Streptococcus pyogenes CIP 5641. Briefly: MIC vis-a-vis several strains (Table V). Format: cell-based. The settings on record: CIP5641.
Excerpt: as §1, §2

The test system of series [5] is Haemophilus influenzae CIP 5293. The series can be described thus: MIC vis-a-vis several strains (Table V). The format is cell-based. The settings on record: CIP5293.
Excerpt: as §1, §2

Series [6] has as its system Bacillus subtilis ATCC 6633. The series can be described thus: MIC vis-a-vis several strains (Table V). Conditions: ATCC6633. Format: cell-based.
Excerpt: as §1, §2

Series [7] has as its system Neisseria meningitidis CIP 7310. Briefly: MIC vis-a-vis several strains (Table V). The format is cell-based. The settings on record: CIP7310.
Excerpt: as §1, §2

Series [8] has as its system Streptococcus pyogenes CIP A.241. Briefly: MIC vis-a-vis several strains (Table V). Format: cell-based. Conditions: CIPA.241.
Excerpt: as §1, §2

Series [9] deals with Streptococcus pyogenes la 147. Briefly: MIC vis-a-vis several strains (Table V). The settings on record: LA147. The format is cell-based.
Excerpt: as §1, §2

Series [10] deals with Klebsiella pneumoniae la 433. Briefly: MIC vis-a-vis several strains (Table V). Format: cell-based. Conditions: LA433.
Excerpt: as §1, §2

For series [11], the system named is Corynebacterium diphteriae CIP A.102. The series can be described thus: MIC vis-a-vis several strains (Table V). Format: cell-based. The settings on record: CIPA.102.
Excerpt: as §1, §2

The subject of series [12] is Neisseria gonorrhoeae CIP A.52. The series can be described thus: MIC vis-a-vis several strains (Table V). The format is cell-based. The settings on record: CIPA.52.
Excerpt: as §1, §2

The subject of series [13] is Streptococcus pyogenes CIP 56.42. Briefly: MIC vis-a-vis several strains (Table V). Format: cell-based. The settings on record: CIP56.
Excerpt: as §1, §2

Series [14] deals with Diplococcus pneumoniae la 209. Briefly: MIC vis-a-vis several strains (Table V). Format: cell-based. The settings on record: Streptococcus pneumoniae, LA209.
Excerpt: as §1, §2

Series [15] concerns Staphylococcus aureus ATCC 6538 P. The series can be described thus: MIC vis-a-vis several strains (Table V). Format: cell-based. Conditions: ATCC6538.
Excerpt: as §1, §2

In series [16] the test system is Branhamella catarrhalis la 987. Briefly: MIC vis-a-vis several strains (Table V). Conditions: Moraxella catarrhalis, LA987. Format: cell-based.
Excerpt: as §1, §2

Series [17] has as its system Staphylococcus aureus London CIP A.238. Briefly: Minimal inhibiting concentration (MIC), Gram+ strain (Table IV). Format: cell-based. The settings on record: Staphylococcus aureus.
Excerpt: as §1, §2
G^+ = Gram^+ strain: Staphylococcus aureus London CIP A.238

A short description of series [18]: Toxicity, LD-50 mice (Table VI). The settings on record: mouse, in vivo.
Series [19] relates to Candida albicans CIP 1180. The series can be described thus: Minimal inhibiting concentration (MIC), fungus strain (Table IV). Format: cell-based. The settings on record: Candida albicans, CIP1180, Candida albicans CIP 1180.
Excerpt: as §1, §2
C = fungus strain: Candida albicans CIP 1180

The subject of series [20] is Escherichia coli CIP 54.8. Briefly: Minimal inhibiting concentration (MIC), Gram- strain (Table IV). The format is cell-based. Conditions: CIP54.
Excerpt: as §1, §2
G^- = Gram^- strain: Escherichia coli CIP 54.8

Structures are written as SMILES.

With `CC(C)(C)CC(C)(C)c1ccc(O)c(Cc2ccc(Cl)cc2Cl)c1` [B.11, 2-(2,4-dichlorobenzyl)-4-(1,1,3,3-tetramethylbutyl)-phenol], the “effectiveness in the treatment of infectious diseases” value in the series with Gram+ bacteriae is on record as “particularly effective in the treatment of infectious diseases caused by Gram+ bacteriae”. Further, the “water solubility / dispersibility” value in series [1] is listed as “not naturally water soluble nor water dispersible”.

Take `CC[N+](CC)(CCOc1ccc(C)cc1Cc1ccc(Cl)cc1Cl)Cc1ccccc1` [Example 26]: the MIC in series [2] was 3.12 µg/mL; in series [3], 1.56 µg/mL; in series [4], 0.78 µg/mL; in series [5], 0.78 µg/mL; in series [6], 1.56 µg/mL; in series [7], 0.78 µg/mL. Also, the MIC in series [8] amounted to 0.78 µg/mL; in [9] it was 0.78 µg/mL; in [10], 25 µg/mL; in series [11], 25 µg/mL; in series [12], 0.78 µg/mL; in series [13], 0.78 µg/mL. In addition, the MIC in series [14] is 1.56 µg/mL; in series [15] it was 0.78 µg/mL; in [16] it was 0.78 µg/mL; in [17] it was 0.25 µg/mL; in series [19], 4 µg/mL; in series [20], 32 µg/mL. Also, the LD50 – broadly, the dose expected to kill half of the subjects tested – in [18] was above 1000 mg/kg.

For `CC[N+](CC)(CCOc1ccc(C(C)(C)C)cc1Cc1ccc(Cl)cc1Cl)Cc1ccccc1` [Example 29, N,N-diethyl-N-{2-[2-(2,4-dichlorobenzyl)-tertiobutylphenoxy]-ethyl}-N-benzylammonium chloride], the MIC in series [2], in series [3], in series [4], in series [5], in [6] and in [7] was 0.78 µg/mL each time. The MIC stood at 0.78 µg/mL in series [8]; 0.78 µg/mL in series [9]; 6.25 µg/mL in series [10]; 3.12 µg/mL in series [11]; 0.78 µg/mL in [12]; 0.78 µg/mL in series [13]. Moreover, the MIC in series [14] came to 0.78 µg/mL; in [15], 0.78 µg/mL; in series [16] it was 0.78 µg/mL; in series [17], 0.015 µg/mL; in [19], 0.125 µg/mL; in [20], 4 µg/mL. This compound also displayed an LD50 in series [18] above 1000 mg/kg.
